Twelve molecules from patent publication US20260317356A1, “SMALL MOLECULE MODULATORS OF OGG1” (AZKARRA THERAPEUTICS, INC., priority 2023, published 2026) can be followed below.

In one experiment the target is T1, nLucOGG1 in HeLa cells (Homo sapiens, UniProt O15527).
T1 construct: thermal shift read by NanoGlo luminescence
The experiment can be described thus: Cellular Thermal Shift Assay to measure compound affinity for nLucOGG1 in HeLa cells (CETSA DTm). In kind it is cell-based. Conditions: 10 μM compound, 37° C. 60 min, Tm vs DMSO control. An outline of the steps: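 HeLa cells transiently nucleofected with N-terminal nLuc-OGG1a, used 48 h later; 25 k cells/well incubated with 10 μM compound or DMSO vehicle 60 min at 37° C, then heated 3 min across a 12-point 37-70° C gradient. NanoGlo luminescence normalized to 37° C, Boltzmann sigmoidal fit gives Tm; delta Tm relative to vehicle.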

A further experiment has as its target hOGG1 (Homo sapiens, UniProt O15527). The experiment in a line: Surface Plasma Resonance with hOGG1 to measure compound affinity (OGG1 SPR Kd). In kind it is binding. More on the design: Protein His-hOGG1 (12-323) was prepared. Conditions: Biacore T-200, immobilized his-tagged OGG1; pH 7.4; 2% DMSO; single-cycle kinetics. An outline of the steps:
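His-tagged recombinant OGG1 was captured on an NTA chip via Ni²⁺ (~2500 RU final). Single-cycle kinetics used five 3-fold compound concentrations (top 750 or 1500 nM) in 20 mM HEPES pH 7.4, 150 mM NaCl, 0.5 mM TCEP, 0.005% Tween-20, 2% DMSO; 45 s contact, 600 s dissociation. Kd came from steady-state and 1:1 kinetic fits.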
On the technique in general: SPR reads the build-up and loss of mass on a sensor chip optically.

T1 sequence (O15527 whole entry): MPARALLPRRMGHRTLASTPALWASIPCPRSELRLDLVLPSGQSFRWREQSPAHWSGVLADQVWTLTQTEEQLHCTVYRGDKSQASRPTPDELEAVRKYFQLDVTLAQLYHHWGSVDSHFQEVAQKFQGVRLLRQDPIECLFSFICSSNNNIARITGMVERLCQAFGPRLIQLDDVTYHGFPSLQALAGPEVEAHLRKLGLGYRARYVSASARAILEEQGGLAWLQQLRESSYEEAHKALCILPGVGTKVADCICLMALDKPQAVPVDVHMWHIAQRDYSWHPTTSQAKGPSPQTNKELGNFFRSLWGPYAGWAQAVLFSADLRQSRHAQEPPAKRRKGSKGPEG
hOGG1, sequence (O15527 12-323): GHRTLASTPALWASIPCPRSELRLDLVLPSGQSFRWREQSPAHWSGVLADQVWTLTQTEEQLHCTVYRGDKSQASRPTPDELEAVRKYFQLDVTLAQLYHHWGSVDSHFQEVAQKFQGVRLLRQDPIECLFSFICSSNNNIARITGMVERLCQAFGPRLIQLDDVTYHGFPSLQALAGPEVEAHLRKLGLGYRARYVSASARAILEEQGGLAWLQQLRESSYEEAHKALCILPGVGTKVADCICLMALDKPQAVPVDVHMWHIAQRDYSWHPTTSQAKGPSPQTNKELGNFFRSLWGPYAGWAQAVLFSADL

Regarding `COc1ccc(NC(=O)[C@H]2CC[C@@H](N3Cc4c(C)cc(NCCN(C)C)cc4NC3=O)CC2)cc1C` [Example 97, (1s,4s)-4-(7-(2-(dimethylamino)ethylamino)-5-methyl-2-oxo-1,2-dihydroquinazolin-3(4H)-yl)-N-(4-methoxy-3-methylphenyl)cyclohexanecarboxamide], the ΔTm (usually the change in melting temperature against a reference sample) at 10 µM on nLucOGG1 in HeLa cells lay in the range of 8 to 10 °C. For the same molecule, the equilibrium dissociation constant (Kd) (in general, the equilibrium constant for the complex coming apart) on hOGG1 fell in the range of 10 to 100 nM.
`COc1ccc(NC(=O)[C@H]2CC[C@@H](N3Cc4c(C)cc(NCCN(C)C)cc4NC3=O)CC2)cc1C#N` [Example 99, (1s,4s)-N-(3-cyano-4-methoxyphenyl)-4-(7-(2-(dimethylamino)ethylamino)-5-methyl-2-oxo-1,2-dihydroquinazolin-3(4H)-yl)cyclohexanecarboxamide]: the ΔTm at 10 µM on nLucOGG1 in HeLa cells was 8 to 10 °C. Further, the equilibrium dissociation constant (Kd) on hOGG1 lay in the range of 10 to 100 nM.
The like results for `COc1cc(NC(=O)[C@H]2CC[C@@H](N3Cc4c(C)cc(N(C)C)cc4C3=O)CC2)ccc1C` [Example 135, (1s,4s)-4-(6-(Dimethylamino)-4-methyl-1-oxoisoindolin-2-yl)-N-(3-methoxy-4-methylphenyl)cyclohexane-1-carboxamide] were, in that order, 6 to 8 °C and 10 to 100 nM.
With `COc1cc(NC(=O)[C@H]2CC[C@@H](N3Cc4c(C)ccc(C#N)c4C3=O)CC2)ccc1C` [Example 143, (1s,4s)-4-(7-Cyano-4-methyl-1-oxoisoindolin-2-yl)-N-(3-methoxy-4-methylphenyl)cyclohexanecarboxamide], the thermal shift (ΔTm) at 10 µM at nLucOGG1 in HeLa cells lay within 6 to 8 °C. On hOGG1, this molecule registered a Kd of 10 to 100 nM.
The like results for `CNCCNc1cc(C)c2c(c1)C(=O)N([C@H]1CC[C@@H](C(=O)Nc3ccc(C)c(OC)c3)CC1)C2` [Example 193, (1s,4s)-N-(3-methoxy-4-methylphenyl)-4-(4-methyl-6-(2-(methylamino)ethylamino)-1-oxoisoindolin-2-yl)cyclohexanecarboxamide] were, in that order, over 10 °C and 10 to 100 nM.
In the same order, the values of `COc1ccc(NC(=O)[C@H]2CC[C@@H](N3Cc4c(C)cccc4C3=O)CC2)cc1C` [Example 227, (1s,4s)-N-(4-Methoxy-3-methylphenyl)-4-(4-methyl-1-oxoisoindolin-2-yl)cyclohexanecarboxamide] are 6 to 8 °C and 10 to 100 nM.
In the same order, the values of `COc1ccc(NC(=O)[C@H]2CC[C@@H](N3Cc4c(C)cccc4C3=O)CC2)cc1C#N` [Example 239, (1s,4s)-N-(3-Cyano-4-methoxyphenyl)-4-(4-methyl-1-oxoisoindolin-2-yl)cyclohexanecarboxamide] are 6 to 8 °C and 10 to 100 nM.
As to `COc1cc(NC(=O)[C@H]2CC[C@@H](N3Cc4c(C)cc(OCCN5CC(F)(F)C5)cc4C3=O)CC2)ccc1C` [Example 255, (1s,4s)-4-(6-(2-(3,3-Difluoroazetidin-1-yl)ethoxy)-4-methyl-1-oxoisoindolin-2-yl)-N-(3-methoxy-4-methylphenyl)cyclohexanecarboxamide], the ΔTm at 10 µM at nLucOGG1 in HeLa cells was in the range of 6 to 8 °C. The Kd at hOGG1 was in the range of 10 to 100 nM.
The like results for `COc1ccc(NC(=O)[C@H]2CC[C@@H](N3Cc4c(C)cc(NCCN(C)C)cc4C3=O)CC2)cc1C` [Example 256, (1s,4s)-4-(6-(2-(Dimethylamino)ethylamino)-4-methyl-1-oxoisoindolin-2-yl)-N-(4-methoxy-3-methylphenyl)cyclohexanecarboxamide] were, in that order, over 10 °C and at most 10 nM.
`COc1ccc(NC(=O)[C@H]2CC[C@@H](N3Cc4c(C)cc(NCCN(C)C)cc4C3=O)CC2)cc1C#N` [Example 259, (1s,4s)-N-(3-Cyano-4-methoxyphenyl)-4-(6-(2-(dimethylamino)ethylamino)-4-methyl-1-oxoisoindolin-2-yl)cyclohexanecarboxamide]: the shift in melting temperature (ΔTm) at 10 µM on nLucOGG1 in HeLa cells lay within 8 to 10 °C. Besides, the dissociation constant (Kd) on hOGG1 lay in the range of 10 to 100 nM.
In the case of `COc1ccc(NC(=O)[C@H]2CC[C@@H](N3Cc4c(C)cc(NCCN(C)C)cc4C3=O)CC2)cc1Cl` [Example 260, (1s,4s)-N-(3-Chloro-4-methoxyphenyl)-4-(6-(2-(dimethylamino)ethylamino)-4-methyl-1-oxoisoindolin-2-yl)cyclohexanecarboxamide], the ΔTm at 10 µM on nLucOGG1 in HeLa cells was over 10 °C. This molecule showed a dissociation constant (Kd) at hOGG1 of 10 to 100 nM.
In the same order, the values of `COc1cc(NC(=O)[C@]2(C)CC[C@H](N3Cc4c(C)cccc4C3=O)CC2)ccc1C` [Example 277, (1s,4s)-N-(3-methoxy-4-methylphenyl)-1-methyl-4-(4-methyl-1-oxoisoindolin-2-yl)cyclohexane-1-carboxamide] are 8 to 10 °C and 10 to 100 nM.
